Experimental data published in ChEMBL document CHEMBL4420076, “Amylin and calcitonin receptor agonist” (2017).
Numbered stars: 1 amine (or outer) side, 2 acyl side, 3 side chain; on linkers, the order of the positions; unused ones are H or OH. Peptide text beside a SMILES is read from it. * marks the point of attachment. C20 diacid = O=C(O)CCCCCCCCCCCCCCCCCCC(=O)*; C18 diacid = O=C(O)CCCCCCCCCCCCCCCCC(=O)*; γGlu = O=C(O)[C@H](CCC(=O)[*:2])N[*:1]; C14 diacid = O=C(O)CCCCCCCCCCCCC(=O)*

Experiments:
[1] = target: T1, Amylin receptor AMY3; CALCR/RAMP3 (Rattus norvegicus, UniProt P32214+Q9JJ73); assay: Displacement of [125I]-labeled rat amylin from rat amylin receptor expressed in BHK tkts13 cell membranes co-expressing RAMP3 incubated for 120 mins by scintillation proximity assay
T1 sequence (P32214 whole entry): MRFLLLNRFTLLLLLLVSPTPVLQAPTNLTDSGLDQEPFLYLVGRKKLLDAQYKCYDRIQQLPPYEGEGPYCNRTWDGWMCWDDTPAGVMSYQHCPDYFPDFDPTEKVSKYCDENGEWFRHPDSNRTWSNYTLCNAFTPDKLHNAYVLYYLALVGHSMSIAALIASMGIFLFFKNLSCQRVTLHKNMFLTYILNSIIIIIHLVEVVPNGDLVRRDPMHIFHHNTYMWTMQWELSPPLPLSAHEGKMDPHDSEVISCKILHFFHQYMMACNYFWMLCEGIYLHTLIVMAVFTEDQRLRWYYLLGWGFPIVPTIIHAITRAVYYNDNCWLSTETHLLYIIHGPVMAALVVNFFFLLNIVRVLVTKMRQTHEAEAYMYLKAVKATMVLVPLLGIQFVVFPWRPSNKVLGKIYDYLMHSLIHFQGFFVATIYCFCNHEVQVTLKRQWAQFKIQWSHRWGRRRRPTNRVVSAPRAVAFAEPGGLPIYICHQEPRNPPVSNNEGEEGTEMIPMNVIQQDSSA
T1 sequence (Q9JJ73 whole entry): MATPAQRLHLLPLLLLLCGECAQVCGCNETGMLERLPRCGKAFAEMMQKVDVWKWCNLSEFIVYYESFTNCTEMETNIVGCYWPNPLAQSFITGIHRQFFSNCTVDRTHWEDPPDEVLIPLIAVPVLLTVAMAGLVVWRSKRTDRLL

[2] = Solubility in 100 mM glycylglycine buffer at pH 4.0 incubated for 18 hrs by UPLC analysis; assay type: physicochemical
[3] = Stability in pH 7.5 buffer assessed as compound recovery at 1 uM by Thioflavin T based fluorescence assay; assay type: physicochemical; conditions: read-out: Drug recovery
Calcitonin receptor [4] = target: T2, Calcitonin receptor (Homo sapiens, UniProt P30988); assay: Displacement of [125I]-labeled human calcitonin from human calcitonin receptor expressed in BHK tkts13 cell membranes incubated for 1 hr by scintillation proximity assay
T2 sequence (P30988 whole entry): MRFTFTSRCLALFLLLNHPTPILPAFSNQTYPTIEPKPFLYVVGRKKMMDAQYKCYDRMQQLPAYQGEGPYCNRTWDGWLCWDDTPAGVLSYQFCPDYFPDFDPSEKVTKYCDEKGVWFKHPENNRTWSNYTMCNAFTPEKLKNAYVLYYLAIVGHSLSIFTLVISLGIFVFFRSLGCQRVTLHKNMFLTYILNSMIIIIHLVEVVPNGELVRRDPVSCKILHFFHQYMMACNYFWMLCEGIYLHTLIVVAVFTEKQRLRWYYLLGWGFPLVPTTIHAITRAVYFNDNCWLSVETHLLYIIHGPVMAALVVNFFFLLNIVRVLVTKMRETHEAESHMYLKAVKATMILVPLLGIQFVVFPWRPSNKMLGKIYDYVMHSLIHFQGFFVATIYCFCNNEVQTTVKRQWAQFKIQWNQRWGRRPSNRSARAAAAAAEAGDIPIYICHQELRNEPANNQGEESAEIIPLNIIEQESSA

[5] = Solubility in 100 mM glycylglycine buffer at pH 3.0 incubated for 18 hrs by UPLC analysis; assay type: physicochemical
[6] = Solubility in 100 mM glycylglycine buffer at pH 5.0 incubated for 18 hrs by UPLC analysis; assay type: physicochemical
[7] = Solubility in 100 mM bistrispropane buffer at pH 6.5 incubated for 18 hrs by UPLC analysis; assay type: physicochemical
[8] = target: T3, Amylin receptor AMY3; CALCR/RAMP3 (Homo sapiens, UniProt O60896+P30988); assay: Agonist activity at human amylin receptor expressed in BHK570 cells co-expressing RAMP3 assessed as increase in intracellular cAMP concentration incubated for 3 hrs in absence of albumin by CRE luciferase reporter gene assay; assay type: functional, cell-based
T3 sequence (P30988 whole entry): T2 sequence (P30988 whole entry)
T3 sequence (O60896 whole entry): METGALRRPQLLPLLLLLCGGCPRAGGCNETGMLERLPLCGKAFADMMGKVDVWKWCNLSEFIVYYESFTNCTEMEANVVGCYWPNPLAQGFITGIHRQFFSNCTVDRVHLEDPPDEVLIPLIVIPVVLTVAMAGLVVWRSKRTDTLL

[9] = Solubility in 100 mM bistrispropane buffer at pH 6.0 incubated for 18 hrs by UPLC analysis; assay type: physicochemical
[10] = Solubility in 100 mM bistrispropane buffer at pH 8.0 incubated for 18 hrs by UPLC analysis; assay type: physicochemical
[11] = Solubility in 100 mM bistrispropane buffer at pH 7.5 incubated for 18 hrs by UPLC analysis; assay type: physicochemical
[12] = Solubility in 100 mM bistrispropane buffer at pH 7.0 incubated for 18 hrs by UPLC analysis; assay type: physicochemical
Calcitonin receptor [13] = target: T2, Calcitonin receptor; assay: Agonist activity at human calcitonin receptor expressed in BHK570 cells assessed as increase in intracellular cAMP concentration incubated for 3 hrs in absence of albumin by CRE luciferase reporter gene assay; assay type: functional, cell-based
[14] = Stability in pH 7.5 buffer assessed as lag time for fibril formation at 1 uM by Thioflavin T based fluorescence assay; assay type: physicochemical; conditions: pH 7.5, 1 µM
[15] = target: T3, Amylin receptor AMY3; CALCR/RAMP3; assay: Displacement of [125I]-labeled rat amylin from human amylin receptor expressed in BHK570 cell membranes co-expressing RAMP3 incubated for 120 mins by scintillation proximity assay
Rattus norvegicus [16] = assay: Reduction in food intake in Sprague-Dawley rat at 3 nmol/kg measured 0 to 24 hrs post dose relative to control; assay type: functional; parameters: scale not given: the % may be the effect or the level left
Calcitonin receptor [17] = target: T2, Calcitonin receptor; assay: Agonist activity at human calcitonin receptor expressed in BHK570 cells assessed as increase in intracellular cAMP concentration incubated for 3 hrs in presence of 10% FBS by CRE luciferase reporter gene assay; assay type: functional, cell-based
[18] = target: T3, Amylin receptor AMY3; CALCR/RAMP3; assay: Agonist activity at human amylin receptor expressed in BHK570 cells co-expressing RAMP3 assessed as increase in intracellular cAMP concentration incubated for 3 hrs in presence of 10% FBS by CRE luciferase reporter gene assay; assay type: functional, cell-based
Rattus norvegicus [19] = assay: Reduction in food intake in Sprague-Dawley rat at 3 nmol/kg measured 24 to 48 hrs post dose relative to control; assay type: functional; parameters: scale not given: the % may be the effect or the level left
[20] = target: T3, Amylin receptor AMY3; CALCR/RAMP3; assay: Displacement of [125I]-labeled rat amylin from human amylin receptor expressed in BHK tkts13 whole cells co-expressing RAMP3 incubated for 60 mins by scintillation proximity assay; assay type: cell-based

IC50 [1] [nM]	solubility at 18 h [2] [µM]	remaining at 1 µM [3] [%]	IC50 (Calcitonin receptor [4]) [nM]	solubility at 18 h [5] [µM]	solubility at 18 h [6] [µM]	solubility at 18 h [7] [µM]	EC50 [8] [nM]	solubility at 18 h [9] [µM]	solubility at 18 h [10] [µM]	solubility at 18 h [11] [µM]	solubility at 18 h [12] [µM]	EC50 (Calcitonin receptor [13]) [nM]	Time [14] [h]	IC50 [15] [nM]	EC50 (Calcitonin receptor [17]) [nM]	EC50 [18] [nM]	IC50 [20] [nM]	Compound	Activity (Rattus norvegicus [16]) [%]	Activity (Rattus norvegicus [19]) [%]
0.122	≥ 200	98	0.023	≥ 200	≥ 200	≥ 200	0.006	≥ 200	≥ 200	≥ 200	≥ 200	0.004	> 45	0.054	–	–	–	CC(C)C[C@H](NC(=O)[C@H](C)NC(=O)[C@H](C)NC(=O)[C@@H](NC(=O)[C@H](CO)NC(=O)[C@H](CC(C)C)NC(=O)[C@H](CCC(=O)O)NC(=O)[C@H](CO)NC(=O)[C@H](C)NC(=O)CC[C@H](NC(=O)CCCCCCCCCCCCC(=O)O)C(=O)O)[C@@H](C)O)C(=O)NCC(=O)N[C@@H](CCCNC(=N)N)C(=O)N[C@@H](CC(C)C)C(=O)N[C@@H](CO)C(=O)N[C@@H](C)C(=O)N[C@@H](CCC(=O)O)C(=O)N[C@@H](CC(C)C)C(=O)N[C@@H](Cc1cnc[nH]1)C(=O)N[C@@H](CCC(=O)O)C(=O)N[C@@H](CC(C)C)C(=O)N[C@@H](C)C(=O)N[C@H](C(=O)N[C@@H](CC(C)C)C(=O)N1CCC[C@H]1C(=O)N[C@@H](CCCNC(=N)N)C(=O)N[C@H](C(=O)N[C@@H](CCC(=O)O)C(=O)N[C@H](C(=O)NCC(=O)N[C@@H](CO)C(=O)NCC(=O)N[C@@H](CO)C(=O)N1CCC[C@H]1C(N)=O)[C@@H](C)O)[C@@H](C)O)[C@@H](C)O ({C14 diacid-γGlu}-ASELSTAALGRLSAELHELATLPRTETGSGSP-NH2)	–	–
0.063	≥ 200	–	0.034	≥ 200	≥ 200	≥ 200	0.018	≥ 200	≥ 200	≥ 200	≥ 200	0.017	–	0.077	0.008	0.009	–	CC(C)C[C@H](NC(=O)[C@H](C)NC(=O)[C@H](C)NC(=O)[C@@H](NC(=O)[C@H](CO)NC(=O)[C@H](CC(C)C)NC(=O)[C@H](CCC(=O)O)NC(=O)[C@H](CO)NC(=O)[C@H](C)NC(=O)CCCCCCCCCCCCCCCCC(=O)O)[C@@H](C)O)C(=O)NCC(=O)N[C@@H](CCCNC(=N)N)C(=O)N[C@@H](CC(C)C)C(=O)N[C@@H](CO)C(=O)N[C@@H](C)C(=O)N[C@@H](CCC(=O)O)C(=O)N[C@@H](CC(C)C)C(=O)N[C@@H](Cc1cnc[nH]1)C(=O)N[C@@H](CCC(=O)O)C(=O)N[C@@H](CC(C)C)C(=O)N[C@@H](C)C(=O)N[C@H](C(=O)N[C@@H](CC(C)C)C(=O)N1CCC[C@H]1C(=O)N[C@@H](CCCNC(=N)N)C(=O)N[C@H](C(=O)N[C@@H](CCC(=O)O)C(=O)N[C@H](C(=O)NCC(=O)N[C@@H](CO)C(=O)NCC(=O)N[C@@H](CO)C(=O)N1CCC[C@H]1C(N)=O)[C@@H](C)O)[C@@H](C)O)[C@@H](C)O ({C18 diacid}-ASELSTAALGRLSAELHELATLPRTETGSGSP-NH2)	52	11
1.53	≥ 200	–	0.097	≥ 200	≥ 200	≥ 200	0.017	≥ 200	≥ 200	≥ 200	≥ 200	0.012	–	0.565	0.048	–	0.697	CC(C)C[C@H](NC(=O)[C@H](C)NC(=O)[C@H](C)NC(=O)[C@@H](NC(=O)[C@H](CO)NC(=O)[C@H](CC(C)C)NC(=O)[C@H](CCC(=O)O)NC(=O)[C@H](CO)NC(=O)[C@H](C)NC(=O)CC[C@H](NC(=O)CCCCCCCCCCCCCCCCCCC(=O)O)C(=O)O)[C@@H](C)O)C(=O)NCC(=O)N[C@@H](Cc1cnc[nH]1)C(=O)N[C@@H](CC(C)C)C(=O)N[C@@H](CO)C(=O)N[C@@H](C)C(=O)N[C@@H](CCC(=O)O)C(=O)N[C@@H](CC(C)C)C(=O)N[C@@H](Cc1cnc[nH]1)C(=O)N[C@@H](CCC(=O)O)C(=O)N[C@@H](CC(C)C)C(=O)N[C@@H](C)C(=O)N[C@H](C(=O)N[C@@H](CC(C)C)C(=O)N1CCC[C@H]1C(=O)N[C@@H](CCCNC(=N)N)C(=O)N[C@H](C(=O)N[C@@H](CCC(=O)O)C(=O)N[C@H](C(=O)NCC(=O)N[C@@H](CO)C(=O)NCC(=O)N[C@@H](CO)C(=O)N1CCC[C@H]1C(N)=O)[C@@H](C)O)[C@@H](C)O)[C@@H](C)O ({C20 diacid-γGlu}-ASELSTAALGHLSAELHELATLPRTETGSGSP-NH2)	17	11
0.026	≥ 200	–	0.15	≥ 200	–	≥ 200	0.041	≥ 200	≥ 200	≥ 200	≥ 200	0.027	–	0.166	0.099	–	0.142	CC(C)C[C@H](NC(=O)CNC(=O)[C@H](CO)NC(=O)[C@H](C)NC(=O)CC[C@H](NC(=O)CCCCCCCCCCCCCCCCCCC(=O)O)C(=O)O)C(=O)N[C@@H](CO)C(=O)N[C@H](C(=O)N[C@@H](C)C(=O)N[C@@H](C)C(=O)N[C@@H](CC(C)C)C(=O)NCC(=O)N[C@@H](CCCNC(=N)N)C(=O)N[C@@H](CC(C)C)C(=O)N[C@@H](CO)C(=O)N[C@@H](CCC(N)=O)C(=O)N[C@@H](CCC(=O)O)C(=O)N[C@@H](CC(C)C)C(=O)N[C@@H](Cc1cnc[nH]1)C(=O)N[C@@H](CCC(=O)O)C(=O)N[C@@H](CC(C)C)C(=O)N[C@@H](CCC(N)=O)C(=O)N[C@H](C(=O)N[C@@H](Cc1ccc(O)cc1)C(=O)N1CCC[C@H]1C(=O)N[C@@H](Cc1cnc[nH]1)C(=O)N[C@H](C(=O)N[C@@H](CCC(=O)O)C(=O)N[C@H](C(=O)NCC(=O)N[C@@H](CO)C(=O)NCC(=O)N[C@H](C(=O)N[C@@H](Cc1ccc(O)cc1)C(N)=O)[C@@H](C)O)[C@@H](C)O)[C@@H](C)O)[C@@H](C)O)[C@@H](C)O ({C20 diacid-γGlu}-ASGLSTAALGRLSQELHELQTYPHTETGSGTY-NH2)	20	14
